Active and inactive are the calls of the source. No cut-off for these calls is given here.
Experiments:
[1] = biological target: Receptor-type tyrosine-protein kinase FLT3 (Homo sapiens, UniProt P36888, D835Y); experiment: Inhibition of recombinant His-tagged human FLT3 D835Y mutant (564 to 958 residues) expressed in baculovirus expression system using tyr 02 as substrate incubated for 1 hr by Z'-LYTE assay
[2] = biological target: Receptor-type tyrosine-protein kinase FLT3 (Homo sapiens, UniProt P36888, ITD); experiment: Inhibition of recombinant N-terminal GST/His6-tagged human FLT3 ITD mutant (571 to 993 residues) expressed in Sf9 insect cells incubated for 1 hr by LanthaScreen assay
MV4-11 [3] = experiment: Cell cycle arrest in human MV4-11 cells assessed as increase in accumulation at sub-G1 phase at 30 uM measured after 72 hrs by propidium iodide/RNaseA staining based flow cytometry analysis; format: functional
MOLM-13 [4] = experiment: Cell cycle arrest in human MOLM-13 cells assessed as accumulation at G0/G1 phase at 0.3 to 3 uM measured after 72 hrs by propidium iodide/RNaseA staining based flow cytometry analysis; format: functional; settings: dose 0.3-3 µM
MV4-11 [5] = experiment: Cytotoxicity against human MV4-11 cells assessed as reduction in cell viability measured after 72 hrs by MTT assay; format: functional, cell-based; settings: MV4-11, 72 h
[6] = biological target: T1, Receptor-type tyrosine-protein kinase FLT3 (Homo sapiens, UniProt P36888); experiment: Inhibition of recombinant His-tagged human FLT3 (564 to 958 residues) expressed in baculovirus expression system using tyr 02 as substrate incubated for 1 hr by Z'-LYTE assay
T1 sequence (P36888 whole entry): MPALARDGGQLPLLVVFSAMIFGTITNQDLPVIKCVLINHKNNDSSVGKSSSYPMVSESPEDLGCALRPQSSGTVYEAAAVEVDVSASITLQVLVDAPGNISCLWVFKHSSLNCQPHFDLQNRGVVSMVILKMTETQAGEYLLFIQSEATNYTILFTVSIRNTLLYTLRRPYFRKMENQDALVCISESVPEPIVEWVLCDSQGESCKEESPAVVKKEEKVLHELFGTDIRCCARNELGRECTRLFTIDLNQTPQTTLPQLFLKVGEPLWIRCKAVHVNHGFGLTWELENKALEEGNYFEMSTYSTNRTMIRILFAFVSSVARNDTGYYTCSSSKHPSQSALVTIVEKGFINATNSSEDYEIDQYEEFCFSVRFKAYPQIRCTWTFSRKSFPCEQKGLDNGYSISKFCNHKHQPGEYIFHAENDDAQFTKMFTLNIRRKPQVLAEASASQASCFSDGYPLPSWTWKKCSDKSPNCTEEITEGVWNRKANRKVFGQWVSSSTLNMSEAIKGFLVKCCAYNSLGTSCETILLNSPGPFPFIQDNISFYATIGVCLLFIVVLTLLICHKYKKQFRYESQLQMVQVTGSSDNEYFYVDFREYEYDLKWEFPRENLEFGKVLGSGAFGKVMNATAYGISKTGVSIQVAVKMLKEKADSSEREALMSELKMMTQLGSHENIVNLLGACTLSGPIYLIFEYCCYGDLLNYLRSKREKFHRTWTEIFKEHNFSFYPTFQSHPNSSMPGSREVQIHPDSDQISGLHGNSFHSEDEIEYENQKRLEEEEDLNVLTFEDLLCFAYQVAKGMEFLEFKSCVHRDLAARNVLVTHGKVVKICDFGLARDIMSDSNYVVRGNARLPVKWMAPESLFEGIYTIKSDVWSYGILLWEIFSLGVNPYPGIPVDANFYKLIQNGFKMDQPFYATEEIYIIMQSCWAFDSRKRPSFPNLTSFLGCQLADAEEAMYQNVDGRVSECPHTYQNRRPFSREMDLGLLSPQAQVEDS

[7] = biological target: Receptor-type tyrosine-protein kinase FLT3 (Homo sapiens) (UniProt P36888); experiment: Inhibition of recombinant His-tagged human FLT3 (564 to 958 residues) expressed in baculovirus expression system at 10 uM using tyr 02 as substrate incubated for 1 hr by Z'-LYTE assay relative to control
MOLM-13 [8] = experiment: Cytotoxicity against human MOLM-13 cells assessed as reduction in cell viability measured after 72 hrs by MTT assay; format: functional, cell-based; settings: MOLM-13, 72 h

SMILES: COc1c(O)cc2oc(-c3ccc(O)cc3)cc(=O)c2c1O [HISPIDULIN]
- IC50 [1]: 230 nM
- IC50 [2]: 390 nM
- Activity (MV4-11 [3]): Active
- Activity (MOLM-13 [4]): Active
- IC50 (MV4-11 [5]): 6800 nM
- IC50 [6]: 440 nM
- inhibition [7]: > 80%
- IC50 (MOLM-13 [8]): 7000 nM

— ChEMBL document CHEMBL4813934, “Investigation of Selected Flavonoid Derivatives as Potent FLT3 Inhibitors for the Potential Treatment of Acute Myeloid Leukemia” (J Nat Prod, 2021)
